Test results from ChEMBL document CHEMBL1201862, “PubChem BioAssay data set” (2004).
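In this assay, cells in 96-well plates receive the compound at five concentrations for 48 hours. Endpoints are linearly interpolated between the surrounding concentrations. Here, GI50 denotes the concentration required for 50% inhibition of growth.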 Active and inactive are the calls of the source. Rule as the data show it: active = GI50 up to about 1.1 µM and inactive = higher. Residues, ends and D or L forms follow the SMILES beside them. *: point of attachment. Boc = CC(C)(C)OC(=O)*

How the values were obtained:
Assay in all cases: NCI anticancer screen, dose series, 48 h
IGROV-1 = tested on: IGROV-1
DU-145 = tested on: DU-145
SK-MEL-2 = tested on: SK-MEL-2
RPMI-8226 = tested on: RPMI-8226
K562 = tested on: K562
U-251 = tested on: U-251
EKVX = tested on: EKVX
SK-MEL-5 = tested on: SK-MEL-5
OVCAR-4 = tested on: OVCAR-4
Malme-3M = tested on: Malme-3M
NCI-H522 = tested on: NCI-H522
SK-OV-3 = tested on: SK-OV-3
SF-539 = tested on: SF-539
A549 = tested on: A549
Hs-578T = tested on: Hs-578T
HL-60 = tested on: HL-60
HCC 2998 = tested on: HCC 2998

Measured: GI50

O=C1/C(=C/c2cccnc2)SC(=S)N1Cc1ccco1
inactive: IGROV-1 6.68 µM | DU-145 2.19 µM | SK-MEL-2 8.87 µM | RPMI-8226 2.2 µM | K562 14.6 µM | U-251 4.37 µM | EKVX 49.5 µM | SK-MEL-5 13.4 µM | OVCAR-4 8.81 µM | Malme-3M 6.73 µM | NCI-H522 1.43 µM | SK-OV-3 19.1 µM | SF-539 2.33 µM | A549 31 µM | Hs-578T 8.39 µM

Cc1ccc(C2=C(Cl)C(=O)C(c3ccc(C)cc3)=C(Cl)C2=O)cc1
inactive: IGROV-1 > 100 µM | DU-145 > 100 µM | RPMI-8226 > 100 µM | K562 > 100 µM | U-251 > 100 µM | EKVX > 100 µM | SK-MEL-5 > 100 µM | OVCAR-4 > 100 µM | Malme-3M > 100 µM | NCI-H522 > 100 µM | SK-OV-3 > 100 µM | SF-539 > 100 µM | A549 > 100 µM | Hs-578T > 100 µM | HL-60 > 100 µM

COC(=O)C(Cc1ccc2c(c1)CCC2)Cc1ccc2c(c1)CCC2
inactive: IGROV-1 > 100 µM | DU-145 > 100 µM | SK-MEL-2 18.4 µM | RPMI-8226 26.1 µM | K562 43.1 µM | U-251 51.9 µM | EKVX 44.8 µM | SK-MEL-5 25.9 µM | OVCAR-4 > 100 µM | NCI-H522 32.9 µM | SK-OV-3 > 100 µM | SF-539 > 100 µM | A549 41.3 µM | Hs-578T > 100 µM | HL-60 23 µM

COC(=O)[C@]1(C)CC[C@]2(C)CC[C@]3(C)C4[C@H]5Oc6c(cc7c(c6C)CCC6[C@@]7(C)CC[C@@]7(C)C8[C@](C)(CCC[C@@]8(C)C(=O)OC)CC[C@]67C)O[C@H]5c5c(cc6c(c5C)O[C@@]5(C)C7=CC=C8[C@@](C)(CC[C@@]9(C)[C@@H]%10C[C@](C)(C(=O)OC)CC[C@]%10(C)CC[C@]89C)C7=CC(=O)[C@@]5(O)O6)[C@]4(C)CC[C@@]3(C)C2C1 (some centres not stated)
inactive: IGROV-1 2.62 µM | DU-145 3.6 µM | SK-MEL-2 3.01 µM | K562 3.46 µM | U-251 3.66 µM | EKVX 3.42 µM | SK-MEL-5 3.69 µM | OVCAR-4 7.59 µM | Malme-3M 4.86 µM | NCI-H522 2.49 µM | SK-OV-3 > 12.5 µM | SF-539 2.63 µM | A549 > 12.5 µM | Hs-578T 5.78 µM | HL-60 5.32 µM

CC(C)(C)OC(=O)N1CCc2[nH][nH]c(=O)c2C1
inactive: IGROV-1 > 100 µM | DU-145 > 100 µM | RPMI-8226 > 100 µM | K562 > 100 µM | U-251 > 100 µM | EKVX > 100 µM | OVCAR-4 > 100 µM | Malme-3M > 100 µM | NCI-H522 > 100 µM | SK-OV-3 > 100 µM | SF-539 > 100 µM | A549 > 100 µM | Hs-578T > 100 µM | HL-60 > 100 µM

CC1(C)N=C(N)N=C(N)N1c1cccc(OCCOc2ccc([N+](=O)[O-])cc2)c1
inactive: IGROV-1 1.96 µM | DU-145 20.1 µM | SK-MEL-2 8.26 µM | RPMI-8226 16.5 µM | K562 41.9 µM | U-251 7.33 µM | EKVX > 100 µM | SK-MEL-5 69.5 µM | OVCAR-4 63.5 µM | Malme-3M 20.6 µM | NCI-H522 3.79 µM | SK-OV-3 > 100 µM | SF-539 15.2 µM | A549 4.48 µM | Hs-578T > 100 µM | HL-60 66.8 µM

C[n+]1c(-c2ccc(/C=N/NC(=O)C(=O)N/N=C/c3ccc(-c4cn5ccsc5[n+]4C)cc3)cc2)cn2ccsc21
inactive: IGROV-1 > 100 µM | HCC 2998 > 100 µM | RPMI-8226 82.6 µM | K562 > 100 µM | U-251 > 100 µM | EKVX > 100 µM | SK-MEL-5 > 100 µM | OVCAR-4 > 100 µM | NCI-H522 > 100 µM | SK-OV-3 > 100 µM | SF-539 > 100 µM | A549 > 100 µM | Hs-578T > 100 µM | HL-60 > 100 µM

CCOC(=O)CCC1(C(=O)O[C@@H]2C[C@H](C)CC[C@H]2C(C)C)CCCCC1=O (some centres not stated)
inactive: IGROV-1 > 100 µM | DU-145 > 100 µM | SK-MEL-2 > 100 µM | RPMI-8226 28.7 µM | K562 28.1 µM | U-251 63.2 µM | EKVX 41.3 µM | SK-MEL-5 31.1 µM | OVCAR-4 61.2 µM | Malme-3M > 100 µM | NCI-H522 67.6 µM | SK-OV-3 > 100 µM | SF-539 > 100 µM | A549 55.3 µM | Hs-578T > 100 µM | HL-60 18.2 µM

Cc1cn(C2CC(COCc3ccccc3)N(CCO[Si](C)(C)C(C)(C)C)O2)c(=O)[nH]c1=O (configuration not stated)
inactive: DU-145 15.8 µM | SK-MEL-2 16.4 µM | RPMI-8226 15.1 µM | K562 4.71 µM | U-251 19.2 µM | SK-MEL-5 2.88 µM | OVCAR-4 17.9 µM | Malme-3M 18.2 µM | NCI-H522 16.2 µM | SK-OV-3 17.6 µM | SF-539 19.1 µM | A549 15.1 µM

Cc1nc(Nc2nc3ccccc3[nH]2)nc(Cl)c1CCCl
inactive: IGROV-1 > 100 µM | DU-145 > 100 µM | SK-MEL-2 > 100 µM | RPMI-8226 > 100 µM | K562 > 100 µM | U-251 49 µM | EKVX > 100 µM | SK-MEL-5 > 100 µM | OVCAR-4 > 100 µM | Malme-3M > 100 µM | NCI-H522 > 100 µM | SF-539 > 100 µM | A549 > 100 µM | Hs-578T 83.8 µM | HL-60 > 100 µM

CN(C)c1ccc(C=C2C(=O)N(c3ccccc3)N(c3ccccc3)C2=O)cc1
inactive: IGROV-1 > 100 µM | DU-145 > 100 µM | SK-MEL-2 > 100 µM | RPMI-8226 69 µM | K562 61.4 µM | U-251 37 µM | EKVX > 100 µM | SK-MEL-5 > 100 µM | Malme-3M > 100 µM | NCI-H522 > 100 µM | SK-OV-3 > 100 µM | A549 78.9 µM | Hs-578T 60.8 µM

Cc1ccc(S(=O)(=O)N2C[C@](O)(c3ccccc3)[C@H]2C)cc1
inactive: IGROV-1 > 100 µM | DU-145 > 100 µM | SK-MEL-2 > 100 µM | U-251 > 100 µM | EKVX > 100 µM | SK-MEL-5 51.1 µM | OVCAR-4 > 100 µM | Malme-3M > 100 µM | NCI-H522 > 100 µM | SK-OV-3 > 100 µM | SF-539 > 100 µM | A549 > 100 µM | Hs-578T > 100 µM | HL-60 72.8 µM

CC(C)(C)OC(=O)NC(Cc1ccc(O)cc1)C(=O)NC(CCCCN)C(=O)O (stereo not drawn) (Boc-Tyr-Lys-OH; configuration not given here)
inactive: IGROV-1 17.3 µM | HCC 2998 28.9 µM | DU-145 27 µM | SK-MEL-2 20.2 µM | RPMI-8226 32.9 µM | K562 35.8 µM | U-251 20.9 µM | SK-MEL-5 28.1 µM | OVCAR-4 17.5 µM | Malme-3M 28.1 µM | NCI-H522 6.41 µM | A549 40.4 µM | HL-60 23.7 µM
